Data published in patent publication US11584733B2, “Selective histone deacetylase inhibitors for the treatment of human disease” (Shuttle Pharmaceuticals, Inc., priority 2017, dated 2023).

Assays:
[1] = test system: Pan HDAC (HeLa Nuclear Extract); test: Pan HDAC assay (Enzo Fluor-de-Lys fluorometric kit, HeLa Nuclear Extract); assay type: biochemical
Description: The Pan HDAC assays described herein were performed as follows:
Materials: Enzo Fluor-de-Lys HDAC fluorometric activity assay kit; 360 nm excitation 460 nm emission Plate Reader; Disposable pipettes; Pipet-aid; Pipette tips; Micro-pipetter; DMSO; Sterile micro-tubes and conical tubes; and Micro-centrifuge.
(§1) Test compounds and control preparation: All test compounds' stock solutions were made in 100% DMSO. Test compound dilutions were made in HDAC Assay buffer with a final concentration of DMSO less than or equal to 1%. Vehicle control was HDAC Assay buffer with 1% DMSO.
(§2) The reagents for the assay were prepared as follows:
(§3) 1. All kit components were defrosted and these, and all dilutions described below, were kept on ice until use. All undiluted kit components are stable for several hours on ice.
2. A sufficient amount of HeLa Nuclear Extract (BML-KI140) or other HDAC source diluted in Assay Buffer (BML-KI143) was prepared to provide for the assays that were performed (# of wells×15 μl). A 30-fold dilution of the HeLa Extract means that 15 μL contains 0.5 μl of the undiluted Extract, an appropriate amount to use per well.
3. Dilution(s) of SAHA and/or Test Inhibitors were prepared in Assay Buffer (BML-K1143). Since 10 μl were used per well, and since the final volume of the HDAC reaction was 50 μl, these inhibitor dilutions were 5× their final concentration.
4. Dilution(s) of the Fluor de Lys® Substrate (BML-KI104; 50 mM) were prepared in Assay Buffer (BML-K1143) that were 2× the desired final concentration(s). For inhibitor screening, substrate concentrations at or below the Km are recommended. Twenty-five μL were used per well. Initial dilutions of 25-fold or greater in Assay Buffer (2.0 mM or less) yielded stable solutions (see NOTE on freezing and thawing below). Rapid mixing and dilution into room temperature buffer helped to prevent precipitation at high substrate concentration. […]
(§4) 6. Samples were read in a microtiter-plate reading fluorimeter capable of excitation at a wavelength in the range 350-380 nm and detection of emitted light in the range 440-460 nm.

Human recombinant HDAC1 = Human recombinant HDAC1 (Homo sapiens, UniProt Q13547); test: HDAC isomer assay, Fluor-de-Lys, HDAC1; assay type: biochemical
Sequence of Human recombinant HDAC1 (Q13547 whole entry): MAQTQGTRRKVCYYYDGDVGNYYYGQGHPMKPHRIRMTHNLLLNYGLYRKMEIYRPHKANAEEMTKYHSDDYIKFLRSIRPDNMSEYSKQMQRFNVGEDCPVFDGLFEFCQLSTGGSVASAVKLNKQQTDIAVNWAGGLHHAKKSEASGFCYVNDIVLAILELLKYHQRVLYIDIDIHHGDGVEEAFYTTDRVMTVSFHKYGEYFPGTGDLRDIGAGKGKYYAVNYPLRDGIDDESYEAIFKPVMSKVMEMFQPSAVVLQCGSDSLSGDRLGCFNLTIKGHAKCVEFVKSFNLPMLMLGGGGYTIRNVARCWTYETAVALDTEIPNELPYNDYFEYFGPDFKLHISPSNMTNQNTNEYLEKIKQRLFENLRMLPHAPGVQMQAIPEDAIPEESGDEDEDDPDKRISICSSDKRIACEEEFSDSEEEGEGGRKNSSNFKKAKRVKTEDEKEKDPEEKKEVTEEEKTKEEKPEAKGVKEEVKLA
Description: The HDAC isomer (HDAC1, 3, and 6) assays were performed as follows:
Materials: Human recombinant HDAC isomer (HDAC1, HDAC3, and HDAC6); Fluor-de-Lys HDAC substrates; 360 nm excitation 460 nm emission Plate Reader; Disposable pipettes; Pipet-aid; Pipette tips; Micro-pipetter; DMSO; Sterile micro-tubes and conical tubes; and Micro-centrifuge.
as §1, §2, §3
2. A sufficient amount of HDAC source diluted in Assay Buffer (BML-KI143) was prepared to provide for the assays that were performed (# of wells×15 μl). A 30-fold dilution of the HeLa Extract means that 15p L contains 0.5 μl of the undiluted Extract, an appropriate amount to use per well.
3. Dilution(s) of SAHA and/or Test Inhibitors were prepared in Assay Buffer (BML-KI143). […]
as §4

Row | SMILES | EC50 ([1]; FIG. 4) [nM] | inhibitor activity in the pan-HDACs assays ([1]; between 5 μM and 15 μM, FIGS. 2 to 4) | IC50 ([1]; Example 6, FIG. 18, 2 mg/mL formulation in 5% DMSO/40% PEG 400/55% PBS, read-out: IC50 against the PAN HDAC) [nM] | EC50 (Human recombinant HDAC1; Example 4, FIG. 9) [nM] | IC50 (Human recombinant HDAC1; Example 6, FIG. 18, 2 mg/mL formulation in 5% DMSO/40% PEG 400/55% PBS, read-out: IC50 against HDAC1 protein) [nM]
1 | O=C(CCCCCCC(=O)NC1CCC(=O)NC1=O)NO (centres unmarked) [SP-2-59, N^1-(2,6-dioxopiperidin-3-yl)-N^8-hydroxyoctanediamide] | 16400 | minimal inhibitor activity | – | – | –
2 | O=C(CCCCCCC(=O)Nc1cccc2c1CN(C1CCC(=O)NC1=O)C2=O)NO (centres unmarked) [SP-2-93, N^1-(2-(2,6-dioxopiperidin-3-yl)-1-oxoisoindolin-4-yl)-N^8-hydroxyoctanediamide] | – | – | 1890 | 1540 | 1540
